Experimental findings from patent US20260374781A1, “NOVEL TRIHETEROCYCLIC COMPOUNDS” (IDENCE CO., LTD., priority 2022, published 2026) are described below.

Where only a bound is given, the exact number is not on record here.

The subject of one test is AsPC-1 cells. Nature of the test: Cell Proliferation Assay, AsPC-1 (CellTiter-Glo 2.0 viability). The class given is cell-based. Particulars: AsPC-1 pancreatic cancer (KRAS G12D mutation). A digest of the protocol: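 AsPC-1 (KRAS G12D, RPMI-1640) and SW480 (KRAS G12V, DMEM) cells in 10% FBS, 2000 cells/well, exposed to 10-point 3-fold compound dilutions for 72 h at 37 °C. Viability by CellTiter-Glo 2.0 luminescence (ATP). IC50 from sigmoidal dose-response fit.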
In general terms: In ATP-based viability assays light output follows the ATP content of the culture.

A further test has as its system SW480 cells. Nature of the test: Cell Proliferation Assay, SW480 (CellTiter-Glo 2.0 viability). The class given is cell-based. Conditions: Homo sapiens; SW480 colon cancer (KRAS G12V mutation); 72 hours. The method, then: Test Example 3: Cell Proliferation Assay
Cell viability testing of test compounds in AsPC-1 pancreatic cancer (KRAS G12D mutation) or SW480 colon cancer (KRAS G12V mutation) cells for 72 hours
The reference compound Staurosporine was purchased from Sigma-Aldrich (Saint Louis, MI), and CellTiter-Glo® 2.0 Luminescent cell viability assay reagent (cat #G9243) was purchased from Promega (Madison, WI). AsPC-1 and SW480 cell lines were purchased from American Type Culture Collection (Manassas, VA). AsPC-1 cells were cultured with RPMI-1640 (ATCC, cat #30-2001) and SW480 cells were cultured with DMEM (ATCC cat #30-2002).
A medium supplemented with 10% FBS (Sigma-Aldrich, cat #F2442) and 100 µg/mL of penicillin-streptomycin (Sigma-Aldrich, cat #P4333) was used. Cells were cultured at 37 °C in a humidified atmosphere of 5% CO2 and 95% air.
• 1. The test compound and reference compound, Staurosporine were dissolved in DMSO solution to prepare 20 mM (test compound) and 10 mM (control compound, Staurosporine) in the Source Plate and diluted with DMSO to 3-fold and 10 doses. • 2. From the Source Plate, 10 volumes of 125 nL test compound or 25 nL reference compound were dispensed into wells of a 384-well culture plate (VWR, cat #82050-076) using Echo 655. • 3. 25 μL of culture medium including 2000 AsPC-1 or SW480 cells was dispensed into each 384-well cell culture plate. • 4. Cells were cultured with the compound for 72 hours at 37 °C and 5% CO2 conditions. • 5. 25 μL of CellTiter-Glo 2.0 reagent was added to each well of the plate. • 6. The contents were mixed for 2 minutes on an orbital shaker, and the luminescence signal was stabilized at room temperature for 15 minutes. • 7. Luminescence signals were measured with an Envision 2104 Multilabel Reader (PerkinElmer, Santa Clara, CA), and the number of surviving cells was determined through quantification of ATP present in each culture. • 8. IC50 values were calculated based on the Sigmoidal dose-response equation in the GraphPad Prism 4 program.

A further test has as its target T1, KRAS G12V (Homo sapiens, UniProt P01116, G12V).
T1 construct: GST-tagged KRAS WT or mutant protein (amino acids 2-169)
Nature of the test: KRAS Nucleotide Exchange Assay (SOS1-mediated), G12V. Particulars: HTRF, 20 nM KRAS, 50 nM SOS1, 60 minutes preincubation, 60 minutes reaction. The class given is biochemical. The text has this:
(§1) Test Example 1: KRAS Nucleotide Exchange Assay
(§2) Evaluation of the inhibitory effect of compounds on SOS1-mediated nucleotide exchange activity of KIRAS^WT, KRAS^G12D, KRAS^G12V, KRAS^G12C and KRAS^G13D mutants
(§3) The assay monitors SOS1 mediated exchange of KRAS bound unlabeled GDP to fluorescently labeled GTP. The detection is based on the transfer of energy between two fluorophores when they are in close proximity. Donor is the Tb cryptate labeled anti-GST antibody and acceptor is a DY-647P1 GTP.
(§4) • GST-tagged KRAS WT or mutant protein (amino acids 2-169), • SOS1 (amino acids 564-1049), • Labeled GTP (GTP-DY-647P1), • Assay Buffer (20 mM HEPES pH 7.4, 150 mM NaCl, 5 mM MgCl2, 1 mM DTT, 0.05% BSA, 0.0025% NP40)
(§5) • 1. KRAS protein was diluted with assay buffer to reach 1.5 times of the final concentration, then mixed with Tb cryptate anti-GST antibody and added at 10 μL to each assay well (all of the final concentration was 20 nM for KRAS^WT, KRAS^G12D, and KRAS^G12V) • 2. The compound was dissolved in DMSO and diluted to prepare 100 times of the final concentration. • 3. Compounds were dispensed into assay wells using an ECHO acoustic dispenser (Beckman), mixed gently with the KRAS/Ab mixture, and incubated for 60 minutes. • 4. SOS1 and labeled GTP were mixed, diluted to 3 times of the final concentration with assay buffer, and 5 μL of the solution was added to the assay well to initiate the reaction (final concentration of labeled GTP was […], final concentration of SOS1 was 7.5 nM in WT, 12.5 nM in G12D and 50 nM in G12V). Only assay buffer and labeled GTP were added to the blank well. • 5. The reaction was monitored at Ex/Em=(337/665; 337/620) using a Pherastar Plate Reader (BMG). • 6. HTRF signals were analyzed approximately 25 minutes after the start of the reaction (60 minutes reaction for G12V). • 7. Nucleotide exchange activity is expressed as a percentage difference compared to the DMSO reaction value, and the IC50 value was calculated based on the four-parameter logistic equation in GraphPad 4.0 software.
A general note: Time-resolved FRET reads energy transfer from a long-lived donor to a nearby acceptor.

Another test addresses T2, KRAS G12D (Homo sapiens, UniProt P01116, G12D).
T2 construct: GST-tagged KRAS WT or mutant protein (amino acids 2-169)
The experiment in a line: KRAS Nucleotide Exchange Assay (SOS1-mediated), G12D. The class given is biochemical. Conditions: HTRF, 20 nM KRAS, 12.5 nM SOS1, 60 minutes preincubation, approximately 25 minutes reaction.
Text: as §1, §2, §3, §4, §5

Another test concerns the target T3, KRAS G13D (Homo sapiens, UniProt P01116, G13D).
T3 construct: GST-tagged KRAS WT or mutant protein (amino acids 2-169)
Nature of the test: KRAS Nucleotide Exchange Assay (SOS1-mediated), G13D. Type of test: biochemical. Particulars: HTRF, 60 minutes preincubation, approximately 25 minutes reaction.
Text: as §1, §2, §3, §4, §5

In another test the target is T4, KRAS G12C (Homo sapiens, UniProt P01116, G12C).
T4 construct: GST-tagged KRAS WT or mutant protein (amino acids 2-169)
The experiment in a line: KRAS Nucleotide Exchange Assay (SOS1-mediated), G12C. Particulars: HTRF, 60 minutes preincubation, approximately 25 minutes reaction. Type of test: biochemical.
Text: as §1, §2, §3, §4, §5

For the next test, the target named is T5, KRAS WT (Homo sapiens, UniProt P01116).
T5 construct: GST-tagged KRAS WT or mutant protein (amino acids 2-169)
The experiment in a line: KRAS Nucleotide Exchange Assay (SOS1-mediated), WT. Particulars: HTRF, 20 nM KRAS, 7.5 nM SOS1, 60 minutes preincubation, approximately 25 minutes reaction. The class given is biochemical.
Text: as §1, §2, §3, §4
• 1. […] The reaction was monitored at Ex/Em=(337/665; 337/620) using a Pherastar Plate Reader (BMG). • 6. HTRF signals were analyzed approximately 25 minutes after the start of the reaction (60 minutes reaction for G12V). • 7. Nucleotide exchange activity is expressed as a percentage difference compared to the DMSO reaction value, and the IC50 value was calculated based on the four-parameter logistic equation in GraphPad 4.0 software.

A word on the IC50: it is the concentration at which inhibition is half-maximal. The low end stands for greater potency, the high end for weaker potency.

T2 sequence (P01116 2-169 isoform P01116-2 G12D): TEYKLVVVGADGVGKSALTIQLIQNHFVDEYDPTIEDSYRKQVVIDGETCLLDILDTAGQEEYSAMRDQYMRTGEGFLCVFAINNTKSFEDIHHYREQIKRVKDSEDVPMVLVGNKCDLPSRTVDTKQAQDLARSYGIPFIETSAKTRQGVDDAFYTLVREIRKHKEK
T1 sequence (P01116 2-169 isoform P01116-2 G12V): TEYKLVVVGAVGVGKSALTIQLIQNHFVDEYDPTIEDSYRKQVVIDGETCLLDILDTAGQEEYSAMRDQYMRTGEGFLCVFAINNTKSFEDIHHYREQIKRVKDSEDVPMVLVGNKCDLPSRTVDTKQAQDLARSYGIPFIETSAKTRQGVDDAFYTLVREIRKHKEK
T3 sequence (P01116 2-169 isoform P01116-2 G13D): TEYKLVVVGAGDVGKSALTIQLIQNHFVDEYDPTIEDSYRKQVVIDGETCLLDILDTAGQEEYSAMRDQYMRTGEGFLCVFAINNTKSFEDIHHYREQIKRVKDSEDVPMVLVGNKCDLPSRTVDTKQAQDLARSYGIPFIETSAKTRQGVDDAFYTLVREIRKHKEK
T4 sequence (P01116 2-169 isoform P01116-2 G12C): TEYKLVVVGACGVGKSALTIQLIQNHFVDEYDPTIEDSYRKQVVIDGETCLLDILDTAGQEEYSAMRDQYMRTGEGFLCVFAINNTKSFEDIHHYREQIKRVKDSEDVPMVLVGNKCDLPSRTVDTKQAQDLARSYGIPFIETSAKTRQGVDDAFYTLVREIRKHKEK
T5 sequence (P01116 2-169 isoform P01116-2): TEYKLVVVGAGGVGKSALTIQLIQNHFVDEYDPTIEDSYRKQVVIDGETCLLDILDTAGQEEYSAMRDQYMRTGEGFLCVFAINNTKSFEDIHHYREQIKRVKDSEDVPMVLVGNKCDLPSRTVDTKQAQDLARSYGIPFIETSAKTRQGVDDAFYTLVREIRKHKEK

In the case of `CCc1c(F)ccc2cc(O)cc(-c3nc4c5c(nc(OC[C@@]67CCCN6C[C@H](F)C7)nc5c3F)N(C(C)c3cccnc3N)CCO4)c12` (mixture of isomers) [Example 14, 4-(10-(1-(2-aminopyridin-3-yl)ethyl)-4-fluoro-2-(((2R,7aS)-2-fluorotetrahydro-1H-pyrrolizin-7a(5H)-yl)methoxy)-9,10-dihydro-8H-7-oxa-1,3,6,10-tetraazacyclohepta[de]naphthalen-5-yl)-5-ethyl-6-fluoronaphthalen-2-ol], the IC50 in the test with AsPC-1 cells (Homo sapiens, ASPC1, 72 h) is under 1000 nM; with SW480 cells, under 1000 nM; on KRAS G12V, 2.79 nM; at KRAS G12D it was 3.79 nM; at KRAS G13D, 8.71 nM; against KRAS G12C, 1.78 nM.

Regarding `C[C@H](c1cccnc1N)N1C[C@H](C)Oc2nc(-c3cc(O)cc4ccc(F)c(F)c34)c(F)c3nc(OC[C@@]45CCCN4C[C@H](F)C5)nc1c23` (stereo in doubt) [Example 10a, 4-((S)-10-((R)-1-(2-aminopyridin-3-yl)ethyl)-4-fluoro-2-(((2R,7aS)-2-fluorotetrahydro-1H-pyrrolizin-7a(5H)-yl)methoxy)-8-methyl-9,10-dihydro-8H-7-oxa-1,3,6,10-tetraazacyclohepta[de]naphthalen-5-yl)-5,6-difluoronaphthalen-2-ol], the IC50 in the test with AsPC-1 cells (Homo sapiens, ASPC1, 72 h) is over 10000 nM; on KRAS G12V it was 1.59 nM; on KRAS G12D, 3.67 nM; at KRAS G13D it was 6.97 nM; on KRAS G12C, 0.608 nM.

With `CCc1c(F)ccc2cc(O)cc(-c3nc4c5c(nc(OC[C@@]67CCCN6C[C@H](F)C7)nc5c3F)N(CC3(N(C)C)CCC3)CCO4)c12` [Example 1, 4-(10-((1-(dimethylamino)cyclobutyl)methyl)-4-fluoro-2-(((2R,7aS)-2-fluorotetrahydro-1H-pyrrolizin-7a(5H)-yl)methoxy)-9,10-dihydro-8H-7-oxa-1,3,6,10-tetraazacyclohepta[de]naphthalen-5-yl)-5-ethyl-6-fluoronaphthalen-2-ol], the IC50 was over 10000 nM with AsPC-1 cells (Homo sapiens, ASPC1, 72 h); 33.4 nM against KRAS G12V; 1.26 nM against KRAS G12D; 6.22 nM against KRAS WT.

As for `C#Cc1c(F)ccc2cc(O)cc(-c3nc4c5c(nc(OC[C@@]67CCCN6C[C@H](F)C7)nc5c3F)N(C(C)c3cccnc3N)CCO4)c12` (stereo partly drawn) [Example 13, 4-(10-(1-(2-aminopyridin-3-yl)ethyl)-4-fluoro-2-(((2R,7aS)-2-fluorotetrahydro-1H-pyrrolizin-7a(5H)-yl)methoxy)-9,10-dihydro-8H-7-oxa-1,3,6,10-tetraazacyclohepta[de]naphthalen-5-yl)-5-ethynyl-6-fluoronaphthalen-2-ol], the IC50 with AsPC-1 cells (72 hours) is under 1000 nM; with SW480 cells, under 1000 nM; on KRAS G12V, 1.38 nM; at KRAS G12D it was 1.65 nM; at KRAS G13D, 3.69 nM; against KRAS G12C it was 0.609 nM.

On to `CC(c1cccnc1N)N1CCOc2nc(-c3cc(O)cc4ccc(F)c(F)c34)c(F)c3nc(OC[C@@]45CCCN4C[C@H](F)C5)nc1c23` (stereo partly drawn) [Example 16, 4-(10-(1-(2-aminopyridin-3-yl)ethyl)-4-fluoro-2-(((2R,7aS)-2-fluorotetrahydro-1H-pyrrolizin-7a(5H)-yl)methoxy)-9,10-dihydro-8H-7-oxa-1,3,6,10-tetraazacyclohepta[de]naphthalen-5-yl)-5,6-difluoronaphthalen-2-ol], for which the concentration for half-maximal inhibition (IC50) is under 1000 nM in the test on AsPC-1 cells (Homo sapiens, ASPC1, 72 h); under 1000 nM with SW480 cells; 2.3 nM against KRAS G12V; 2.35 nM against KRAS G12D; 4.94 nM against KRAS G13D; 0.916 nM on KRAS G12C.
